Reference: patent US20230096443A1, “NOVEL NICOTINAMIDE DI-NUCLEOTIDE DERIVATIVES AND USE THEREOF” (NUVAMID SA, priority 2019, published 2023)

Assays:
[1] = test system: CYP-induced visceral pain; assay: Acute cyclophosphamide (CYP)-induced cystitis model, von Frey mechanical stimulation; assay type: in vivo, female Sprague-Dawley rats; settings: 500 mg/kg p.o.
Description: The aim of the present study was to evaluate, the effects of oral administration of Nicotinamide Mono-Nucleoside (NMN), Pro-drug A (alpha-NMN) and Pro-drug B (compound I-A), compounds I-B and I-C at 500 mg/kg on visceral pain response in the acute cyclophosphamide (CYP)-induced cystitis model in female Sprague-Dawley rats.
Female Sprague-Dawley rats, 7 weeks at delivery
• NMN: 500 mg/kg • Pro-drug A: 500 mg/kg • Pro-drug B (compound I-A): 500 mg/kg • Compound I-B: 500 mg/kg • Compound I-C; 500 mg/kg • Vehicle: distilled water • Route of administration: per os (p.o.), 5 mL/kg • Frequency of administration: once at DO, 15 min prior CYP intraperitoneal (i.p.) injection.
=>lowered threshold=allodynia • Nociceptive score: % of the maximal response (total=9 for 3 pooled applications) for each filament

SS RBCs = assay: RBC sickling under hypoxia ex vivo (sickle cell disease mouse model); assay type: in vivo, Townes S/S mice; settings: 1% O2 for 30 minutes ex vivo
Description: The aim of the present study was to evaluate, the effects of i.p. administration of Nicotinamide Mononucleotide (NMN), compound I-B and compound I-C at 185 mg/kg as modulator of red blood cell sickling and their potential role in therapy for sickle cell disease on a mouse model of SCD.
Townes S/S mice on a 129/B6 mixed genetic background.
The powder of NMN, compounds I-B and I-C (185 mg/kg) were dissolved in vehicle (the solution was used at room temperature for maximum 1 day). A fresh sample for each administration was prepared every day except the week-end (the solution is prepared on Saturday and is used on Saturday and Sunday).
In Townes S/S mice, mouse alpha- and beta-globin gene loci are deleted and replaced by human alpha- and beta-globins. When carrying two copies of the beta S allele, mice develop a human sickle cell disease phenotype with sickle-shaped red blood cells seen in blood smears.
Mice were i.p treated with NMN, compounds I-B and I-C during all the experiment (D0 to D15) once per day. Last injection occurred 24 hours before sacrifice.
Retro-orbital blood collection was performed at the inclusion D0 and at D5, D10 and D15 through facial vein bleeding.
Red blood cells collected were submitted to hypoxia (1% O2) for 30 minutes to induce sickling. Percentage of sickle cells was then assessed.
SS RBCs from treated mice were collected at D0, D5, D10 and D15 and were submitted to hypoxia for 30 minutes in a hypoxic chamber (1% O2). Percentage of sickling RBCs was then assessed for each time point with compounds NMN, I-B and I-C.

[2] = test system: doxorubicin-induced cardiotoxicity; assay: Model of doxorubicin-induced cardiotoxicity; assay type: in vivo, male mice; settings: 5 days after DOX 20 mg/kg; for survival rate: 180 mg/kg i.p. once daily; for end-systolic LV volume: vs DOX vehicle group; for heart weight: vs DOX vehicle mice
Description: The aim of the present study was to evaluate, the effects of i.p administration of Nicotinamide Mononucleotide (NMN), compound I-B and compound I-C at 180 mg/kg in the progression of a cardiotoxicity induced by doxorubicin.
76 male mice, 8-week-old at the arrival were obtained from Janvier Labs, Le Genest St Isle, 53941 St Berthevin, France. Each animal was identified with electronic chip. Each cage was numbered. Based on the animal number/cage and number of cages, the animals were assigned of unique number with the name of group and mice number.
The powder of NMN, compounds I-B and I-C (180 mg/kg) were dissolved in vehicle (the solution is used at room temperature for maximum 1 day). A fresh sample for each administration was prepared every day except the week-end (the solution is prepared on Saturday and is used on Saturday and Sunday).
Cardiotoxicity was induced by a single intraperitoneal injection of doxorubicin (DOX) at 20 mg/kg. Doxorubicin was prepared at 2 mg/mL and volume of administration was 10 mL/Kg.
At D0, mice were injected with DOX (20 mg/kg) by intraperitoneal route.
The treatment with NMN, compounds I-B and I-C was initiated from 5 days before DOX injection, once per day, from D-5 to DO.
Mice were i.p treated with NMN, compounds I-B and I-C 30 min before DOX injection.
Mice were i.p treated with NMN, compounds I-B and I-C for the duration of the experiment (D0 to D5) once per day. Last injection occurred 24 hours before sacrifice.
The bodyweight was assessed at inclusion and at D5.
The survival rate was recorded every day until the end of the experiment (D5).
Retro-orbital blood collection was performed at the inclusion and at 1 and 5 days after the […] with DOX to assess biomarker (LDH and creatinine).
Echocardiography (ECG) was performed 5 days after doxorubicin injection in anesthetized (isoflurane 1.5-2%) animals with non-invasive two-dimensional echocardiography (VF16-5 probe, Siemens, Acuson NX3 Elite). After removing hairs on the chest, numeric images of the heart were obtained in both parasternal long-axis and short axis views.
The following cardiac function were assessed during ECG: • Left ventricle (LV) end-systolic and end-diastolic inner diameter; • LV end-systolic and end-diastolic volume, • Fractionnal shortening; • Ejection fraction; • Heart Rate; and • Anterior and posterior wall thickness in Diastole and in systole.

[3] = after 15 days treatment 185 mg/kg i.p. once daily

| SMILES | nociceptive scores (CYP-induced visceral pain) vs vehicle ([1]; +2 h after CYP) | nociceptive threshold (CYP-induced allodynia) vs vehicle ([1]; +2 h after CYP) | nociceptive scores (CYP-induced visceral pain) vs vehicle ([1]; +4 h after CYP) | nociceptive threshold (CYP-induced allodynia) vs vehicle ([1]; +4 h after CYP) | percentage of sickling cells (SS RBCs; D0 (start of treatment)) [%] | percentage of sickling cells (SS RBCs; [3]) | survival rate [2] | ejection fraction ([2]; 180 mg/kg i.p.) [%] | fractional shortening ([2]; 180 mg/kg i.p.) | LV anterior and posterior wall thickness in systole ([2]; 180 mg/kg i.p., vs DOX vehicle) | body weight loss after doxorubicin administration ([2]; 180 mg/kg i.p., vs DOX vehicle) | heart rate (change in words) ([2]; 180 mg/kg i.p., vs DOX vehicle) | reduction in plasma LDH release/levels ([2]; 180 mg/kg i.p., vs DOX vehicle) | end-systolic LV volume ([2]; 180 mg/kg i.p.) | nociceptive scores (CYP-induced visceral pain) vs vehicle ([1]; +6 h after CYP) | nociceptive threshold (CYP-induced allodynia) vs vehicle ([1]; +6 h after CYP) | heart weight ([2]; 180 mg/kg i.p.) | heart rate ([2]; 180 mg/kg i.p.) [bpm] |
| --- | --- | --- | --- | --- | --- | --- | --- | --- | --- | --- | --- | --- | --- | --- | --- | --- | --- | --- |
| NC(=O)c1ccc[n+]([C@H]2O[C@H](COP(=O)([O-])O)[C@@H](O)[C@H]2O)c1 [Pro-Drug A, alpha-NMN, reference compound] | decrease | non-significant increase | achieved the statistical level | significant increase | – | – | – | – | – | – | – | – | – | – | – | – | – | – |
| NC(=O)c1ccc[n+]([C@@H]2O[C@H](COP(=O)([O-])O)[C@@H](O)[C@H]2O)c1 [NMN, Nicotinamide Mononucleotide, reference compound] | significant decrease | slight increase | significant decrease | slight increase | 40 | less than 10% | 78 % of survival | 56.9±0.6 | around 38% | non-significant increases | significantly decreased | increased heart rates | more than 35% | reduced | – | – | – | – |
| NC(=O)c1ccc[n+]([C@H]2O[C@H](COP(=O)([O-])OP(=O)([O-])OC[C@H]3O[C@H]([n+]4cccc(C(N)=O)c4)[C@H](O)[C@@H]3O)[C@@H](O)[C@H]2O)c1 [Compound I-C] | significant decrease | – | significant decrease | – | 31 | 20% | 100 % of survival | 58.2±0.5 | around 38% | non-significant increases | significantly decreased | increased heart rates | – | reduced | significant decrease | significant increase | tended to increase heart weight | – |
| NC(=O)c1ccc[n+]([C@@H]2O[C@H](COP(=O)([O-])OP(=O)([O-])OC[C@H]3O[C@H]([n+]4cccc(C(N)=O)c4)[C@H](O)[C@@H]3O)[C@@H](O)[C@H]2O)c1 [Compound I-B] | significant decrease | – | significant decrease | – | 32 | less than 15% | 98 % of survival | 60.0±0.6 | around 38% | non-significant increases | significantly decreased | – | – | reduced | significant decrease | significant increase | tended to increase heart weight | 470.1±18.8 |
